Our source for the logP values is patent US20100081679A1, “DIAMINOPYRIMIDINES AS FUNGICIDES” (Bayer CropScience AG, priority 2007, published 2010).

Marks after values point to notes of the source that are not given here.

One data set in a line: logP determination via retention times, calibrated with unbranched alkan-2-ones. It counts as physicochemical. The settings on record: HPLC on reversed-phase C 18, method **: 43° C.; 0.1% aqueous phosphoric acid and acetonitrile; linear gradient 10% to 95% acetonitrile.
On to `CN(c1nc(Nc2ccccc2)ncc1Br)C1CC1` [compound 928], for which the logP is 1.7**.
The same measure, in the same setting: the same measure for `CC(=O)Nc1ccc(Nc2ncc(C(F)(F)F)c(NC3CC3)n2)cc1` [compound 956]: 1.64**.

The same data set, now with this note: HPLC on reversed-phase C18, method *: 40° C., 0.1% aqueous formic acid and acetonitrile, linear gradient 10% to 95% acetonitrile.
`Clc1cnc(Nc2ccccc2Br)nc1NC1CC1` [compound 871]: the logP is recorded as 2.7*.
On the same count and under the same terms, the figure for `CC(C)c1ccccc1Nc1ncc(Cl)c(NC2CC2)n1` [compound 872] is 1.96*; for `Clc1ccc(Oc2ccccc2)c(Nc2ncc(Cl)c(NC3CC3)n2)c1` [compound 873] it is 4.87*; for `CCOc1ccccc1Nc1ncc(Cl)c(NC2CC2)n1` [compound 876] it is 2.13*.
On the same count and under the same terms, the figure for `CSc1ccccc1Nc1ncc(Cl)c(NC2CC2)n1` [compound 880] is 2.18*.
On the same count and under the same terms, the figure for `N#Cc1ccccc1Nc1ncc(Cl)c(NC2CC2)n1` [compound 881] is 0.85*; for `FC(F)(F)Oc1ccccc1Nc1ncc(Cl)c(NC2CC2)n1` [compound 883] it is 3.07*.
As to `Clc1cnc(Nc2ccccc2Sc2ccccc2)nc1NC1CC1` [compound 884], the logP is on record as 3.94*.
Still for that read-out and setting: the same measure for `CC(C)Sc1ccccc1Nc1ncc(Cl)c(NC2CC2)n1` [compound 885]: 3.72*; for `Clc1cnc(Nc2ccccc2Cc2ccccc2)nc1NC1CC1` [compound 890]: 2.21*; for `FC(F)C(F)(F)Oc1ccccc1Nc1ncc(Cl)c(NC2CC2)n1` [compound 896]: 3.14*.
On the same count and under the same terms, the figure for `Clc1cnc(Nc2ccccc2-c2ccccc2)nc1NC1CC1` [compound 900] is 2.46*; for `Clc1cnc(Nc2ccccc2Oc2ccccc2)nc1NC1CC1` [compound 901] it is 3.14*.
Same read-out and setting: the same measure for `FC(F)(F)c1cc(Nc2ncc(Cl)c(NC3CC3)n2)cc(C(F)(F)F)c1` [compound 903]: 4.56*.
As to `CCC(C)c1ccccc1Nc1ncc(Cl)c(NC2CC2)n1` (centres unmarked) [compound 907], the logP is 2.11*.
On the same count and under the same terms, the same measure for `CCCCc1ccccc1Nc1ncc(Cl)c(NC2CC2)n1` [compound 911]: 2.3*; for `CCCc1ccccc1Nc1ncc(Cl)c(NC2CC2)n1` [compound 912]: 2.01*.
Still for that read-out and setting: the figure for `Clc1cc(Nc2ncc(Cl)c(NC3CC3)n2)ccc1Br` [compound 919] is 3.63*; for `FC(F)(F)c1cnc(Nc2ccccc2)nc1NCC1CC1` [compound 922] it is 2.99*.
Still for that read-out and setting: the figure for `Brc1cnc(Nc2ccccc2)nc1NC1(COc2ccccc2)CC1` [compound 932] is 3.03*; for `Cc1cc(Cl)c(Br)cc1Nc1ncc(Cl)c(NC2CC2)n1` [compound 933] it is 3.46*.
Regarding `Fc1cc(C(F)(F)F)ccc1Nc1ncc(Cl)c(NC2CC2)n1` [compound 934], the logP is 3.68*.
Still for that read-out and setting: the figure for `Cc1ccc(C)c(Nc2ncc(Cl)c(NC3CC3)n2)c1` [compound 935] is 1.83*; for `N#Cc1cc(Nc2ncc(Cl)c(NC3CC3)n2)c(F)cc1Cl` [compound 936] it is 3.33*.
The same measure, in the same setting: the figure for `Clc1cnc(Nc2cccc(Cl)c2Cl)nc1NC1CC1` [compound 937] is 3.76*.
Same read-out and setting: the same measure for `Cc1ccccc1Nc1ncc(Cl)c(NC2CC2)n1` [compound 938]: 1.61*; for `Cc1ccc(Nc2ncc(Cl)c(NC3CC3)n2)cc1C` [compound 939]: 2.01*.
On to `Clc1ccccc1Nc1ncc(Cl)c(NC2CC2)n1` [compound 940], for which the logP is 2.6*.
The same measure, in the same setting: the same measure for `Clc1ccc(Nc2ncc(Cl)c(NC3CC3)n2)cc1Cl` [compound 941]: 3.46*; for `Clc1ccc(Nc2ncc(Cl)c(NC3CC3)n2)cc1Br` [compound 942]: 3.55*.
Take `FC(F)Oc1ccccc1Nc1ncc(Cl)c(NC2CC2)n1` [compound 943]: the logP is reported as 2.36*.
Still for that read-out and setting: the figure for `FC(F)(F)Sc1ccccc1Nc1ncc(Cl)c(NC2CC2)n1` [compound 944] is 3.72*; for `Cc1cc(F)ccc1Nc1ncc(Cl)c(NC2CC2)n1` [compound 945] it is 1.68*.
Same read-out and setting: the same measure for `Fc1cccc(Nc2ncc(Cl)c(NC3CC3)n2)c1F` [compound 946]: 2.53*.
The same measure, in the same setting: the figure for `Fc1cc(Cl)ccc1Nc1ncc(Cl)c(NC2CC2)n1` [compound 947] is 3.03*; for `Fc1ccc(F)c(Nc2ncc(Cl)c(NC3CC3)n2)c1` [compound 948] it is 2.91*.
For `NS(=O)(=O)c1cc(Nc2ncc(Cl)c(NC3CC3)n2)ccc1Cl` [compound 949], the logP is given as 1.66*.
On the same count and under the same terms, the same measure for `FC(F)(F)c1cccc(Nc2ncc(Cl)c(NC3CC3)n2)c1` [compound 950]: 3.03*; for `CCc1ccc(Nc2ncc(Cl)c(NC3CC3)n2)cc1` [compound 951]: 2.13*.
The same measure, in the same setting: the figure for `Clc1cnc(Nc2ccc(C3CCCCC3)cc2)nc1NC1CC1` [compound 952] is 3.29*; for `CCCc1ccc(Nc2ncc(Cl)c(NC3CC3)n2)cc1` [compound 953] it is 2.5*.

Still in this data set, the particulars now being: HPLC reversed-phase C 18, EEC Directive 79/831 Annex V.A8; method **: 43° C., 0.1% aqueous phosphoric acid and acetonitrile, linear gradient 10% to 95% acetonitrile.
Regarding `O=c1ccccn1-c1cccc(Nc2ncc(Br)c(NC3CC3)n2)c1` [compound 833], the logP is recorded as 1.46**.
On the same count and under the same terms, the same measure for `O=C1OCCN1c1cccc(Nc2ncc(C(F)(F)F)c(NC3CC3)n2)c1` [compound 834]: 2.18**; for `CSc1cccc(Nc2nc(C)c(Cl)c(NC3CC3)n2)c1` [compound 837]: 2.23**.
Turning to `Cc1nc(Nc2cccc(N3CCCC3=O)c2)nc(NC2CC2)c1Cl` [compound 838], the logP was 1.47**.
Same read-out and setting: the same measure for `COCc1cccc(Nc2nc(C)c(Cl)c(NC3CC3)n2)c1` [compound 839]: 1.67**; for `Cc1nc(Nc2ccc(N3CCOC3=O)cc2)nc(NC2CC2)c1Cl` [compound 840]: 1.31**; for `CN1CCN(c2ccc(Nc3ncc(Cl)c(NC4CC4)n3)cc2C(F)(F)F)CC1` [compound 846]: 1.38**.
On the same count and under the same terms, the same measure for `CON(C(C)=O)c1cccc(Nc2ncc(Br)c(NC3CC3)n2)c1` [compound 849]: 1.68**; for `CON(C(C)=O)c1cccc(Nc2ncc(Cl)c(NC3CC3)n2)c1` [compound 850]: 1.57**.
Still for that read-out and setting: the same measure for `Brc1cnc(Nc2cccc(I)c2)nc1NC1CC1` [compound 860]: 3.34**.

Staying with this data set, now noted: HPLC reversed-phase C 18, EEC Directive 79/831 Annex V.A8; method *: 40° C., 0.1% aqueous formic acid and acetonitrile, linear gradient 10% to 95% acetonitrile.
In the case of `COc1cc(CC#N)ccc1Nc1ncc(Cl)c(NC2CC2)n1` [compound 817], the logP is reported as 1.82*.
In the case of `COc1cc(CC#N)ccc1Nc1ncc(Br)c(NC2CC2)n1` [compound 818], the logP is given as 1.99*.
Regarding `Cc1ccc(Nc2ncc(Cl)c(NC3CC3)n2)cc1CC#N` [compound 819], the logP is listed as 1.79*.
Consider `Cc1ccc(Nc2ncc(Br)c(NC3CC3)n2)cc1CC#N` [compound 820], for which the logP is 1.85*.
On the same count and under the same terms, the figure for `N#CCc1cccc(Nc2ncc(Cl)c(NCC3CC3)n2)c1` [compound 821] is 1.81*.
Take `CC(=O)Nc1ccc(Nc2ncc(Cl)c(NC3CC3)n2)cc1O` [compound 822]: the logP is listed as 1*.
Same read-out and setting: the figure for `CC(C)(C)CSCc1ccc(Nc2ncc(Cl)c(NC3CC3)n2)cc1` [compound 823] is 3.78*; for `CN(C)C(=O)c1ccc(Nc2ncc(C(F)(F)F)c(NC3CC3)n2)cc1` [compound 824] it is 2.08*.
For the molecule `CSC(C)c1cccc(Nc2ncc(C(F)(F)F)c(NC3CC3)n2)c1` (centres unmarked) [compound 825], the logP is on record as 3.81*.
On the same count and under the same terms, the same measure for `COC(C)c1cccc(Nc2ncc(C(F)(F)F)c(NC3CC3)n2)c1` (centres unmarked) [compound 826]: 3.16*; for `CSC(C)c1cccc(Nc2ncc(C(F)(F)F)c(NCC3CC3)n2)c1` (centres unmarked) [compound 827]: 3.95*; for `CC(C)(C)c1ccc(Nc2ncc(Cl)c(NC3CC3)n2)cc1` [compound 829]: 2.92*.
As for `CC(C)(C)NC(=O)c1cccc(Nc2ncc(Cl)c(NC3CC3)n2)c1` [compound 831], the logP is on record as 2.07*.
The same measure, in the same setting: the figure for `N#CCc1ccc(Nc2ncc(Cl)c(NC3CC3)n2)cc1` [compound 832] is 1.59*; for `O=c1ccccn1-c1cccc(Nc2ncc(Br)c(NC3CC3)n2)c1` [compound 833] it is 1.46*;; for `O=C1OCCN1c1cccc(Nc2ncc(C(F)(F)F)c(NC3CC3)n2)c1` [compound 834] it is 2.18*;.
Still for that read-out and setting: the same measure for `Brc1cnc(Nc2ccccc2)nc1NC1CC1` [compound 836]: 2.56*.
Still for that read-out and setting: the figure for `CC(=O)CCc1cccc(Nc2ncc(Cl)c(NC3CC3)n2)c1` [compound 841] is 1.72*.
As for `O=C1OCCN1c1cccc(Nc2ncc(Br)c(NC3CC3)n2)c1` [compound 842], the logP is recorded as 1.51*.
Same read-out and setting: the same measure for `Oc1c(Cl)cc(Nc2ncc(Cl)c(NC3CC3)n2)cc1Cl` [compound 845]: 1.99*; for `COCc1cccc(Nc2ncc(I)c(NC3CC3)n2)c1` [compound 847]: 1.86*.
On the same count and under the same terms, the figure for `O=C(c1cccc(Nc2ncc(Cl)c(NC3CC3)n2)c1)N1CCCC1` [compound 848] is 1.57*.
Same read-out and setting: the figure for `CC(=O)Cc1ccc(Nc2ncc(Cl)c(NC3CC3)n2)cc1` [compound 851] is 1.48*; for `CCCS(=O)(=O)c1cccc(Nc2ncc(Cl)c(NC3CC3)n2)c1` [compound 852] it is 2.25*.
On to `CO/N=C(\C)Cc1cccc(Nc2ncc(Cl)c(NC3CC3)n2)c1` [compound 854], for which the logP is listed as 2.2*.
On the same count and under the same terms, the figure for `COc1cccc(Nc2ncc(I)c(NC3CC3)n2)c1` [compound 855] is 1.97*; for `CC(O)C(=O)Nc1cccc(Nc2ncc(Cl)c(NC3CC3)n2)c1` (centres unmarked) [compound 856] it is 1.49*.
Same read-out and setting: the figure for `CSc1cccc(Nc2ncc(I)c(NC3CC3)n2)c1` [compound 858] is 2.44*.
With `O=C1OCCN1c1cccc(Nc2ncc(Cl)c(NCC3CC3)n2)c1` [compound 861], the logP is given as 1.63*.
On the same count and under the same terms, the figure for `O=C1OCCN1c1cccc(Nc2ncc(Br)c(NCC3CC3)n2)c1` [compound 862] is 1.68*.
